Laboratory results as given in US10428083B2, “Heterocyclylmethyl-thienouracile as antagonists of the adenosine-A2B-receptor” (BAYER PHARMA AKTIENGESELLSCHAFT, priority 2015, dated 2019).

Molecular target: human adenosine A2b receptor (Homo sapiens (Human), UniProt P29275)
Experiment: Cellular in vitro reporter gene test for A2b receptor activity (CHO-K1, CRE-luciferase, NECA stimulation)
Assay type: cell-based
Details: recombinant CHO-K1 cell line, CRE-luciferase reporter, antagonism of EC50 concentration of NECA; in some cases means of several determinations, rounded to two significant figures; read-out: A2b receptor IC50
Outline: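 CHO-K1 cells with CRE-driven luciferase; antagonists co-incubated with NECA at its EC50, determined in a pre-experiment on each test day. Luciferase read by luminescence 3 h after NECA addition.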

Sequence of human adenosine A2b receptor (P29275 whole entry): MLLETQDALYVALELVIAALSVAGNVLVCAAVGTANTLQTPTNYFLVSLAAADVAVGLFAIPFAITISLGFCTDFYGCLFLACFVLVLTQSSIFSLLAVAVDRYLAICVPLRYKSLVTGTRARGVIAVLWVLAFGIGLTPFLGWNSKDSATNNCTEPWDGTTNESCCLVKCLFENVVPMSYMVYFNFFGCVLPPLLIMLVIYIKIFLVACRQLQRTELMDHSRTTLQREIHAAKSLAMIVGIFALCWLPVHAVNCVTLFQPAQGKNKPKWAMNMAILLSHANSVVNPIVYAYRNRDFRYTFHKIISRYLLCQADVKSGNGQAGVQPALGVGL

SMILES | IC50
CCn1c(=O)c2c(C)c(CN3C(=O)CCC3C)sc2n(CCC(F)(F)F)c1=O (racemic) [Example 10, 3-Ethyl-5-methyl-6-[(2-methyl-5-oxopyrrolidin-1-yl)methyl]-1-(3,3,3-trifluoropropyl)thieno[2,3-d]pyrimidine-2,4(1H,3H)-dione (racemate)] | 7 nM
CCn1c(=O)c2c(C)c(Cn3cc[nH]c3=O)sc2n(CC2CCCO2)c1=O (single isomer, unassigned) [Example 243, 3-Ethyl-5-methyl-6-[(2-oxo-2,3-dihydro-1H-imidazol-1-yl)methyl]-1-(tetrahydrofuran-2-ylmethyl)thieno[2,3-d]pyrimidine-2,4(1H,3H)-dione] | 14 nM
Cc1c(CN2CCNC(=O)C2=O)sc2c1c(=O)n(C(C)C)c(=O)n2CC1CCCO1 (racemic) [Example 480, 6-[(2,3-Dioxopiperazin-1-yl)methyl]-3-isopropyl-5-methyl-1-(tetrahydrofuran-2-ylmethyl)thieno[2,3-d]pyrimidine-2,4(1H,3H)-dione] | 35 nM
Cc1c(CN2CCNC2=S)sc2c1c(=O)n(CC(F)F)c(=O)n2C [Example 166, 3-(2,2-Difluoroethyl)-1,5-dimethyl-6-[(2-thioxoimidazolidin-1-yl)methyl]thieno[2,3-d]pyrimidine-2,4(1H,3H)-dione] | 13 nM
COCCn1c(=O)n(C(C)COC)c(=O)c2c(C)c(CN3CCNC3=O)sc21 (single isomer, unassigned) [Example 330, 1-(2-Methoxyethyl)-3-(1-methoxypropan-2-yl)-5-methyl-6-[(2-oxoimidazolidin-1-yl)methyl]thieno[2,3-d]pyrimidine-2,4(1H,3H)-dione] | 220 nM
COC(C)Cn1c(=O)c2c(C)c(Cn3nc[nH]c3=O)sc2n(CCC(F)(F)F)c1=O (racemic) [Example 440, 3-(2-Methoxypropyl)-5-methyl-6-[(5-oxo-4,5-dihydro-1H-1,2,4-triazol-1-yl)methyl]-1-(3,3,3-trifluoropropyl)thieno[2,3-d]pyrimidine-2,4(1H,3H)-dione] | 23 nM
Cc1c(CN2CCNC2=S)sc2c1c(=O)n(CC(F)(F)F)c(=O)n2CC1CCCO1 (single isomer, unassigned) [Example 299, 5-Methyl-1-(tetrahydrofuran-2-ylmethyl)-6-[(2-thioxoimidazolidin-1-yl)methyl]-3-(2,2,2-trifluoroethyl)thieno[2,3-d]pyrimidine-2,4(1H,3H)-dione] | 5.6 nM
CCn1c(=O)c2c(C)c(CN3CCNC3=O)sc2n(Cc2nonc2C)c1=O [Example 82, 3-Ethyl-5-methyl-1-[(4-methyl-1,2,5-oxadiazol-3-yl)methyl]-6-[(2-oxoimidazolidin-1-yl)methyl]thieno[2,3-d]pyrimidine-2,4(1H,3H)-dione] | 17 nM
Cc1c(Cn2cc[nH]c2=O)sc2c1c(=O)n(CC(F)(F)F)c(=O)n2CCC(F)(F)F [Example 339, 5-Methyl-6-[(2-oxo-2,3-dihydro-1H-imidazol-1-yl)methyl]-3-(2,2,2-trifluoroethyl)-1-(3,3,3-trifluoropropyl)thieno[2,3-d]pyrimidine-2,4(1H,3H)-dione] | 5.6 nM
COC(C)(C)Cn1c(=O)c2c(C)c(CN3CCNC3=S)sc2n(CCCF)c1=O [Example 171, 1-(3-Fluoropropyl)-3-(2-methoxy-2-methylpropyl)-5-methyl-6-[(2-thioxoimidazolidin-1-yl)methyl]thieno[2,3-d]pyrimidine-2,4(1H,3H)-dione] | 13 nM
COCCn1c(=O)c2c(C)c(CN3CCNC3=NC#N)sc2n(CC2CCCO2)c1=O (single isomer, unassigned) [Example 368, [1-{[3-(2-Methoxyethyl)-5-methyl-2,4-dioxo-1-(tetrahydrofuran-2-ylmethyl)-1,2,3,4-tetrahydrothieno[2,3-d]pyrimidin-6-yl]methyl}imidazolidin-2-ylidene]cyanamide] | 82 nM
CCn1c(=O)c2c(C)c(CN3CCNC3=NC(=O)OC)sc2n(CC2CCCO2)c1=O (racemic) [Example 374, Methyl [1-{[3-ethyl-5-methyl-2,4-dioxo-1-(tetrahydrofuran-2-ylmethyl)-1,2,3,4-tetrahydrothieno[2,3-d]pyrimidin-6-yl]methyl}imidazolidin-2-ylidene]carbamate] | 7 nM
COCCn1c(=O)n(C(C)C)c(=O)c2c(C)c(Cn3cc[nH]c3=O)sc21 [Example 246, 3-Isopropyl-1-(2-methoxyethyl)-5-methyl-6-[(2-oxo-2,3-dihydro-1H-imidazol-1-yl)methyl]thieno[2,3-d]pyrimidine-2,4(1H,3H)-dione] | 4.7 nM
CC#CCn1c(=O)c2c(C)c(CN3CCNC3=O)sc2n(CCOC)c1=O [Example 317, 3-(But-2-yn-1-yl)-1-(2-methoxyethyl)-5-methyl-6-[(2-oxoimidazolidin-1-yl)methyl]thieno[2,3-d]pyrimidine-2,4(1H,3H)-dione] | 25 nM
CCn1c(=O)c2c(C)c(Cn3ncn(CC(O)CO)c3=O)sc2n(CCOC(F)(F)F)c1=O (racemic) [Example 115, 6-{[4-(2,3-Dihydroxypropyl)-5-oxo-4,5-dihydro-1H-1,2,4-triazol-1-yl]methyl}-3-ethyl-5-methyl-1-[2-(trifluoromethoxy)ethyl]thieno[2,3-d]pyrimidine-2,4(1H,3H)-dione] | 31 nM
CCn1c(=O)c2c(C)c(CN3CCNC3=O)sc2n(CC2CC2(F)F)c1=O (single isomer, unassigned; enantiomer 2) [Example 56, 1-[(2,2-Difluorocyclopropyl)methyl]-3-ethyl-5-methyl-6-[(2-oxoimidazolidin-1-yl)methyl]thieno[2,3-d]pyrimidine-2,4(1H,3H)-dione (Enantiomer 2)] | 8 nM
Cc1c(CN2CCNC2=O)sc2c1c(=O)n(CC(F)(F)F)c(=O)n2CC1CCCO1 (single isomer, unassigned) [Example 211, 5-Methyl-6-[(2-oxoimidazolidin-1-yl)methyl]-1-(tetrahydrofuran-2-ylmethyl)-3-(2,2,2-trifluoroethyl)thieno[2,3-d]pyrimidine-2,4(1H,3H)-dione] | 17 nM
Cc1c(CN2CCNC2=O)sc2c1c(=O)n(CC(F)F)c(=O)n2CCC(F)(F)F [Example 214, 3-(2,2-Difluoroethyl)-5-methyl-6-[(2-oxoimidazolidin-1-yl)methyl]-1-(3,3,3-trifluoropropyl)thieno[2,3-d]pyrimidine-2,4(1H,3H)-dione] | 3.1 nM
Cc1c(CN2CCNC2=O)sc2c1c(=O)n(C(C)C(F)(F)F)c(=O)n2CCC(F)(F)F (centres unmarked) [Example 409, 5-Methyl-6-[(2-oxoimidazolidin-1-yl)methyl]-3-(t1,1,1-trifluoropropan-2-yl)-1-(3,3,3-trifluoropropyl)thieno[2,3-d]pyrimidine-2,4(1H,3H)-dione] | 14 nM
CCn1c(=O)c2c(C)c(Cn3c(C)c[nH]c3=O)sc2n(CCOC)c1=O [Example 252] | 4.1 nM
COCCn1c(=O)c2c(C)c(Cn3[nH]ccc3=O)sc2n(CCC(F)(F)F)c1=O [Example 287, 3-(2-Methoxyethyl)-5-methyl-6-[(5-oxo-2,5-dihydro-1H-pyrazol-1-yl)methyl]-1-(3,3,3-trifluoropropyl)thieno[2,3-d]pyrimidine-2,4(1H,3H)-dione] | 63 nM
Cc1c(CN2CCNC2=NC#N)sc2c1c(=O)n(CC(C)(C)C)c(=O)n2CC1CCCO1 (single isomer, unassigned) [Example 447, [1-{[3-(2,2-Dimethylpropyl)-5-methyl-2,4-dioxo-1-(tetrahydrofuran-2-ylmethyl)-1,2,3,4-tetrahydrothieno[2,3-d]pyrimidin-6-yl]methyl}imidazolidin-2-ylidene]cyanamide] | 9.7 nM
CCn1c(=O)c2c(C)c(CN3CCCOC3=O)sc2n(CCC(F)(F)F)c1=O [Example 25, 3-Ethyl-5-methyl-6-[(2-oxo-1,3-oxazinan-3-yl)methyl]-1-(3,3,3-trifluoropropyl)thieno[2,3-d]pyrimidine-2,4(1H,3H)-dione] | 5.7 nM
Cc1c(Cn2nc[nH]c2=O)sc2c1c(=O)n(CC(C)(C)C)c(=O)n2CC1CCCO1 (single isomer, unassigned) [Example 431, 3-(2,2-Dimethylpropyl)-5-methyl-6-[(5-oxo-4,5-dihydro-1H-1,2,4-triazol-1-yl)methyl]-1-(tetrahydrofuran-2-ylmethyl)thieno[2,3-d]pyrimidine-2,4(1H,3H)-dione] | 740 nM
Cc1c(CN2CCNC2=O)sc2c1c(=O)n(CC(F)(F)F)c(=O)n2CCC(F)(F)F [Example 204, 5-Methyl-6-[(2-oxoimidazolidin-1-yl)methyl]-3-(2,2,2-trifluoroethyl)-1-(3,3,3-trifluoropropyl)thieno[2,3-d]pyrimidine-2,4(1H,3H)-dione] | 1.1 nM
CCOCCn1c(=O)c2c(C)c(CN3CCNC(=O)C3=O)sc2n(CCC(F)(F)F)c1=O [Example 403, 6-[(2,3-Dioxopiperazin-1-yl)methyl]-3-(2-ethoxyethyl)-5-methyl-1-(3,3,3-trifluoropropyl)thieno[2,3-d]pyrimidine-2,4(1H,3H)-dione] | 35 nM
CCn1c(=O)c2c(C)c(CN3CCNC3=NC(=O)OC)sc2n(CC2CCO2)c1=O (single isomer, unassigned) [Example 373, Methyl [1-{[3-ethyl-5-methyl-1-(oxetan-2-ylmethyl)-2,4-dioxo-1,2,3,4-tetrahydrothieno[2,3-d]pyrimidin-6-yl]methyl}imidazolidin-2-ylidene]carbamate] | 5.9 nM
COCCn1c(=O)c2c(C)c(Cn3[nH]ccc3=O)sc2n(CC2CCCO2)c1=O (racemic) [Example 289, 3-(2-Methoxyethyl)-5-methyl-6-[(5-oxo-2,5-dihydro-1H-pyrazol-1-yl)methyl]-1-(tetrahydrofuran-2-ylmethyl)thieno[2,3-d]pyrimidine-2,4(1H,3H)-dione] | 180 nM
Cc1c(CN2CCNC2=S)sc2c1c(=O)n(C(C)C)c(=O)n2C [Example 297, 3-Isopropyl-1,5-dimethyl-6-[(2-thioxoimidazolidin-1-yl)methyl]thieno[2,3-d]pyrimidine-2,4(1H,3H)-dione] | 17 nM
